Source: patent US20120015923A1, “USE OF ANDROGRAPHOLIDE COMPOUNDS FOR TREATING INFLAMMATION AND AIRWAY DISORDERS” (NATIONAL UNIVERSITY OF SINGAPORE, priority 2009, published 2012)

Experiments:
[1] = tested on: IL-4, IL-5, IL-13, eotaxin and IFN-γ in the BAL fluid; experiment: Cytokine and chemokine levels in BAL fluid (ELISA), OVA mouse asthma model; type: in vivo, BALB/c mice; conditions: OVA-challenged mice
Procedure: Andrographolide or DDAG alone (0.1, 0.5, and 1 mg/kg; Sigma, St. Louis, Mo.) or vehicle (1% dimethyl sulfoxide [DMSO]) in 0.1 ml saline was given by intraperitoneal injections 2 hour before and 10 hours after each OVA aerosol challenge. Andrographolide or 14-deoxy-11,12-didehydroandrographolide (DDA) were prepared from stock. DMSO was used as a solvent to dissolve Andrographolide or DDA. A stock solution of 10 mg/ml was prepared and stored at −20° C. When used, the stock solution was thawed and diluted with Saline solution to form three different drug concentrations: 0.01 mg/ml, 0.05 mg/ml and 0.1 mg/ml.
Bronchoalveolar lavage (BAL) was conducted on Day 25, 24 hours after the final OVA/saline challenge. Mice were anaesthetized by 0.3 ml i.p. injections of an anesthetic cocktail (ketamine: medetomidine: H2O=3:4:33, Parnell, Alexandria NSW, Australia & Pfizer, Auckland, New Zealand) with 27 G½ sterile needle (PrecisionGlide®). Mice were sacrificed by cervical dislocation 5 minutes after anesthetization. 25 G½ sterile needles (PrecisionGlide®) were used for blood extraction. […] Tracheotomy was then performed and a small transverse incision was made on the exposed trachea. Blunt needles (20 G), which were connected to 1 ml sterile syringes, were inserted into the trachea through this incision and 0.5 ml of ice-cold PBS (4° C.) was instilled thrice into the lungs (0.5 ml×3). About 1.2-1.4 ml of BAL fluid was retrieved from each mouse and was kept in −80° C. for subsequent experiments.
DDAG alone (0.1, 0.5, and 1 mg/kg; Sigma, St. Louis, Mo.) or vehicle (2% dimethyl sulfoxide [DMSO]) in 0.1 ml saline was given by intraperitoneal injections 2 hour before and 10 hours after each OVA aerosol challenge. In the combinational experiments, DDAG (0.1 mg/kg) in combination with Dexamethasone (0.05 mg/kg) was given intraperitoneally. In both experimental setting, saline aerosol was used as a negative control. Animal experiments were performed according to the Institutional guidelines for Animal Care and Use Committee of the National University of Singapore.
Levels of IL-4, 11-5, IL-13, eotaxin and IFN-γ in the BAL fluid were measured (IL-4, IL-5 and IFN-γ from BD Biosciences Pharmingen, San Diego, Calif., USA; IL-13 and eotaxin from R&D Systems, Minneapolis, Minn., USA). The kits were obtained from two different manufacturers and thus the protocols differed in certain steps. In brief, 50 μl of coating capture antibody in respective coating buffers (pH 9.5, 0.1 M sodium carbonate for IL-4, IL-5 and IFN-γ; 1×PBS for IL-13 and eotaxin) was coated to 96-well ELISA plate (NUNC, Denmark). The plate was sealed with parafilm and incubated overnight at respective temperature (4° C. for IL-4, IL-5 and IFN-γ and room temperature for IL-13 and eotaxin). Next day, each well was washed with washing buffer (PBS with 0.05% Tween-20) and blocked with 200 μl blocking buffer (PBS with 10% FBS for IL-4, IL-5 and IFN-γ; 1×PBS with 1% BSA and 5% sucrose for IL-13 and eotaxin) for 2 hours at room temperature. After blocking, 50 μl of standards and BAL fluid samples were loaded into respective wells, and incubated for 2 h at room temperature. Several washings were done to remove unbound molecules. The plate was incubated with biotinylated-detection antibody with HRP for 1 h (BD OptEIA™ Kit) or with biotinylated detection antibody for 1 h followed by HRP for 45 min (R&D Kit). After washing, 50 μl of TMB peroxidase substrate (solution A: solution B=9:1) was added into each well, and incubated for 30 min in dark. Lastly, 50 μl of stopping solution (1 M H2SO4) was added to stop the reaction. The optical density of each well in the plate was read at 450 nm with λ correction at 570 nm. Detection limits of the respective kits are as follow: 4 pg/ml for IL-4 and IL-5; 15.6 pg/ml for IL-13 and IFN-γ; and 2 pg/ml for eotaxin.

[2] = tested on: IL-6, IL-8 and RANTES mRNA in normal human bronchial epithelial cells; experiment: TNF-α-induced cytokine mRNA expression in normal human bronchial epithelial cells; type: cell-based; conditions: 10 ng/ml TNF-α for 12 hours; 30 μM
Procedure: To determine the effects of andrograhpolide on OVA-specific immune responses in lymphocytes, thoracic lymph node cells were grown in bronchial epithelial bulletkit medium (Cambrex BioScience, Walkersvile, Md., USA), supplemented with bovine pituitary extract (2 ml), hydrocortisone (0.5 ml), recombinant human EGF (0.5 ml), epinephrine (0.5 ml), transferrin (0.5 ml), insulin (0.5 ml), retinoic acid (0.5 ml), triiodothyronine (0.5 ml), gentamycin sulfate (50 μg/ml), and amphotericin B (50 ng/ml). The cells were incubated in 5% CO2 incubator at 37° C., and subcultured at 80% to 85% confluency. Cells were exposed to 200 μg/ml OVA for 72 hours. Concanavalin A (Con A, 10 μug/ml) was used as a positive control. Supernatants from parallel triplicate cultures were analyzed for cytokine levels by ELISA. Normal human bronchial epithelial cells were cultured in optimized bronchial epithelial bulletkit medium with supplements (Lonza, Basel, Switzerland). Cells were pretreated with 30 μM andrographolide or vehicle (0.01% DMSO) 4 hours before stimulation with 10 ng/ml tumor necrosis factor (TNF)-α. Total and nuclear proteins, and mRNA were extracted from cells at specified time intervals.
PCR amplifications were then performed using the multiwell thermal cycler on 1 μl cDNA template in a 25 μl reaction volume. The reaction volume contained 10.5 μl nuclease-free water, 0.5 μl forward primer (10 μM), 0.5 μl reverse primer (10 μM) and 12.5 μl 2×PCR master mix (50 units/ml TaqDNA polymerase, 400 μM dATP, 400 μM dGTP, 400 μM dCTP, 400 μM dTTP and 3 mM MgCl2).

[3] = 0.1, 0.5, 1 mg/kg i.p., 24 hours after last OVA aerosol, vs DMSO control

| Structure (SMILES) | IL-4 level in BAL fluid [1, 3] | IL-5 level in BAL fluid [1, 3] | IL-13 level in BAL fluid [1, 3] | eotaxin level in BAL fluid [1, 3] | TNF-α-induced up-regulation of IL-6 mRNA expression [2] | TNF-α-induced up-regulation of IL-8 mRNA expression [2] | TNF-α-induced up-regulation of RANTES mRNA expression [2] | IFN-γ level in BAL fluid ([1]; 1 mg/kg) |
| --- | --- | --- | --- | --- | --- | --- | --- | --- |
| C=C1CC[C@@H]2[C@](C)(CO)[C@H](O)CC[C@@]2(C)[C@@H]1C/C=C1/C(=O)OC[C@H]1O [Andrographolide] | inhibited | inhibited | inhibited | inhibition | noticeably blocked | noticeably blocked | noticeably blocked |  |
| C=C1CCC2C(C)(CO)C(O)CCC2(C)C1C=CC1=CCOC1=O (stereo not drawn) [DDAG, 14-Deoxy-11,12-didehydroandrographolide] | significantly (P<0.05) reduced | significantly (P<0.05) reduced | significantly (P<0.05) reduced |  |  |  | strongly suppressed | markedly upregulated |
